From patent US6123943A, “NF-KB activity inhibitor” (Kaken Shoyaku Co., Ltd., priority 1997, dated 2000)

Tests used:
NF-κB = experiment: Gel shift assay: inhibition of NF-κB binding activation in U1 cells; format: cell-based, human; conditions: for inhibition at 0.1 µg/mL / inhibition at 1 µg/mL: Homo sapiens
Method: Inhibition Action on NF-κB Binding Activation
In order to examine the action of a test compound cepharanthine to inhibit NF-κB binding activation, U1 [a cell strain derived from HIV-1 (HIV type 1) latent infection human monocyte] cells were stimulated or not stimulated with phorbol 12-myristate 13-acetate (PMA) in the presence or absence of the test compound, and the following assay was carried out using a nucleoprotein extract obtained from the resulting cells.
Gel shift assay was carried out using an NF-κB probe of HIV-1. A double-stranded DNA fragment of an NF-κB site-like sequence, 5'-AGTTGAGGGGACTTTCCCAGGC-3' from the transcription initiation point, was used as the NF-κB probe of HIV-1. The 5'-terminus of the probe was radiation-labeled with ^32 p in the usual way using [γ-^32 P]ATP and polynucleotide kinase. […] At the same time, a sample in which a large quantity of non-labeled probe was added to the reaction solution was prepared and the same reaction was carried out as a competitive assay. Thereafter, the ^32 P-labeled NF-κB probe was added thereto to carry out 20 minutes of binding reaction at room temperature. After the reaction, 4% unmodified polyacrylamide gel electrophoresis was carried out in order to separate the DNA-NF-κB complex from free oligonucleotide. The gel was subjected to autoradiography, and NF-κB in the nucleoprotein extract was determined by an image analyzer (BIO-RAD, Model GS-700 Imaging Densitometer).
The action of the test compound to inhibit activation of NF-κB binding by PMA stimulation of U1 cells (inhibition ratio, %) is shown in Table 1.
V3: Cepharanthine control; reaction (2.5 hours) of U1 cells in the
presence of 0.1 μg/ml of cepharanthine
V4: Cepharanthine control; reaction (2.5 hours) of U1 cells in the
presence of 1 μg/ml of cepharanthine
V6: Reaction (2 hours) of U1 cells in the presence of 0.1 μg/ml of
cepharanthine + stimulation (0.5 hour) with 10 ng/ml of PMA
V7: Reaction (2 hours) of U1 cells in the presence of 1 μg/ml of
**: V6, V7, V8 and V9 vs. V5

[1] = Acute toxicity test (LD50); conditions: mouse, in vivo, male mice
HIV-1 LTR = HIV-1 LTR CAT assay: inhibition of HIV-1 LTR transcription activity in HeLa cells; format: cell-based; conditions: 48 hours; for % Inhibition: vs. V3 (PMA)
Method: Inhibition action on HIV-1 LTR transcription activity
In order to examine effect of a test compound cepharanthine on the HIV-1 transcription activity, CAT assay was carried out by the following method.
A plasmid in which chloramphenicol acetyltransferase (CAT) gene has been linked to the downstream of HIV-1 LTR gene was introduced by lipofection into HeLa cells adjusted to a density of 1×10^6 cells, and the resulting cells were cultured in the presence or absence of the test compound and phorbol 12-myristate 13-acetate (PMA). After 48 hours of the culturing, the cells were collected and washed to prepare a cell extract using a freeze-thawing method. The thus prepared cell extract was allowed to react with acetyl CoA and [^14 C]-labeled chloramphenicol (CM), and the thus formed acetyl[^14 C]CM was separated by a thin layer chromatography, subjected to autoradiography and then […] measured using an image analyzer (BIO-RAD, Model GS-700 Imaging Densitometer).
V4: HeLa cells were cultured in the presence of cepharanthine (0.1
μg/ml) + PMA (10 ng/ml)
V5: HeLa cells were cultured in the presence of cepharanthine (1 μg/ml

[2] = 0.1 μg/ml, 2 hours + PMA 10 ng/ml, 0.5 hour
[3] = 1 μg/ml, 2 hours + PMA 10 ng/ml, 0.5 hour

With `COc1ccc2cc1Oc1ccc(cc1)C[C@H]1c3c(cc4c(c3Oc3cc5c(cc3OC)CCN(C)[C@@H]5C2)OCO4)CCN1C` [cepharanthine] the Area (NF-κB; [2]) was 70.45 mm × mm, the “Average (OD)” value (NF-κB; [2]) was 0.491 OD and the Labeled amount (NF-κB; [2]) was 34.59 OD × mm × mm. For the same compound, the Area (NF-κB; 0.1 μg/ml, 2.5 hours, no PMA) was 70.53 mm × mm, the “Average (OD)” value (NF-κB; 0.1 μg/ml, 2.5 hours, no PMA) was 0.447 OD and the Labeled amount (NF-κB; 0.1 μg/ml, 2.5 hours, no PMA) was 31.53 OD × mm × mm. For the same compound, the Area (NF-κB; [3]) was 50.63 mm × mm, the “Average (OD)” value (NF-κB; [3]) was 0.490 OD and the Labeled amount (NF-κB; [3]) was 24.81 OD × mm × mm. For the same compound, the Area (NF-κB; 1 μg/ml, 2.5 hours, no PMA) was 69.15 mm × mm, the “Average (OD)” value (NF-κB; 1 μg/ml, 2.5 hours, no PMA) was 0.442 OD and the Labeled amount (NF-κB; 1 μg/ml, 2.5 hours, no PMA) was 30.56 OD × mm × mm. The inhibition at 0.1 µg/mL (NF-κB; 0.1 μg/ml, 2 hours + PMA 10 ng/ml, 0.5 hour, vs. V5 (PMA)) was 24.7%, the inhibition at 0.1 µg/mL (NF-κB; 0.1 μg/ml, 2.5 hours, no PMA, vs. V2 (untreated U1 cells)) was 10.9% and the inhibition at 1 µg/mL (NF-κB; 1 μg/ml, 2 hours + PMA 10 ng/ml, 0.5 hour, vs. V5 (PMA)) was 46%. For the same compound, the inhibition at 1 µg/mL (NF-κB; 1 μg/ml, 2.5 hours, no PMA, vs. V2 (untreated U1 cells)) was 13.7%, the LD50 ([1]; intravenous) was 47 mg/kg and the LD50 ([1]; oral) was 3410 mg/kg. The Area (HIV-1 LTR; 0.1 μg/ml + PMA (10 ng/ml)) was 54.31 mm × mm, the “Average (OD)” value (HIV-1 LTR; 0.1 μg/ml + PMA (10 ng/ml)) was 0.892 OD and the Labeled amount (HIV-1 LTR; 0.1 μg/ml + PMA (10 ng/ml)) was 48.44 OD × mm × mm. For the same compound, the “% Inhibition” value (HIV-1 LTR; 0.1 μg/ml + PMA (10 ng/ml)) was 33.1%, the Area (HIV-1 LTR; 1 μg/ml + PMA (10 ng/ml)) was 41.00 mm × mm and the “Average (OD)” value (HIV-1 LTR; 1 μg/ml + PMA (10 ng/ml)) was 0.867 OD. For the same compound, the Labeled amount (HIV-1 LTR; 1 μg/ml + PMA (10 ng/ml)) was 35.55 OD × mm × mm and the “% Inhibition” value (HIV-1 LTR; 1 μg/ml + PMA (10 ng/ml)) was 50.9%.

`COc1cc2c3cc1Oc1c(OC)c(OC)cc4c1[C@@H](Cc1ccc(O)c(c1)Oc1ccc(cc1)C[C@@H]3N(C)CC2)N(C)CC4` [berbamine] gave an LD50 ([1]; intravenous) of 18.8 mg/kg.

`COc1ccc2cc1Oc1ccc(cc1)C[C@H]1c3cc(c(OC)cc3CCN1C)Oc1c(OC)c(OC)cc3c1[C@@H](C2)N(C)CC3` [isotetrandrine] gave an LD50 ([1]; intravenous) of 32.5 mg/kg.

Compound `COc1ccc2cc1Oc1ccc(cc1)C[C@H]1c3c(cc(OC)c(O)c3Oc3cc4c(cc3OC)CCN(C)[C@@H]4C2)CCN1C` [homoaromoline] has an LD50 ([1]; intravenous) of 42.4 mg/kg.

Compound `COc1cc2c3c(c1OC)Oc1ccc(cc1)C[C@@H]1c4c(cc(OC)c(OC)c4Oc4ccc(cc4)C[C@H]3N(C)CC2)CCN1C` [cycleanine] has an LD50 ([1]; intravenous) of 62.5 mg/kg.

Compound `COc1cc2c3cc1Oc1c4c(cc5c1[C@H](Cc1ccc(cc1)Oc1cc(ccc1O)C[C@H]3N(C)CC2)N(C)CC5)OCO4` [cepharanoline] has an LD50 ([1]; intravenous) of 34.3 mg/kg.
